Data as given in patent US8287845B2, “Hair-binding peptides” (E I du Pont de Nemours and Company, priority 2008, dated 2012).

Conditions: biotinylated peptide in TBST with 1 mg/mL BSA, 1 hour at room temperature, streptavidin-HRP/TMB, A450; MB50 calculated from Scatchard plots
Method: The MB50 provides an indication of the strength of the binding interaction or affinity of the components of the complex.
Then, the streptavidin-horseradish peroxidase (HRP) conjugate (Pierce Chemical Co., Rockford, Ill.) was added to each well (1.0 μg per well), and incubated for 1 h at room temperature, followed by 6 times of washes with TBST. […] The results were plotted as A450 versus the concentration of peptide using GraphPad Prism 4.0 (GraphPad Software, Inc., San Diego, Calif.).

Row | Substance | MB50
1 | RRSMSLRMLTRGIKWSAMAYLASRWIL-K(biotin)-NH2 [CXH-W3] | 72 nM
2 | SLRRRWTTFGKILRRWTLPTAMLLVMM-K(biotin)-NH2 [CXH-W4] | 21 nM
